Experiment: in vitro
Conditions: human, hela cells

Q: For `CC1CN(C(=O)Oc2ccccc2)C(C)CN1CCCC(c1ccc(F)cc1)c1ccc(F)cc1` (stereo not shown) [CBK024993C], which viability at 28.5 h, 10 µM is on record?
A: 87.4%

Same assay, conditions: human, hela cells, % viability

Q: Which viability at 28.5 h, 10 µM does the source give for `CN1CCCC1C(CCNC1CCCCC1)c1ccccc1` (stereo not shown) [CBK023921C] here?
A: 99%

Q: For `COc1ccccc1NC(=O)CN1CCN(CCC(=O)c2ccc(C(C)C)cc2)CC1` [CBK023925C], which viability at 28.5 h, 10 µM is on record?
A: 95%

Q: With `CC1(C)OC(N2CCN(Cc3ccccc3)CC2)=Nc2ccccc21` [CBK023933C] as the compound, how does the viability at 28.5 h, 10 µM read?
A: 90.9%

Q: Which viability at 28.5 h, 10 µM does the source give for `c1ccc2[nH]c(CCSCCc3nc4ccccc4[nH]3)nc2c1` [CBK023949] here?
A: 86%

Q: With `O=c1[nH]c(=S)c2c(n1CCc1ccccn1)CCCC2` [CBK023951G] as the compound, how does the viability at 28.5 h, 10 µM read?
A: 101%

Q: Which viability at 28.5 h, 10 µM does the source give for `c1ccc2c(c1)CCC(CNCCN1CCOCC1)O2` (stereo not shown) [CBK023956G] here?
A: 94%

Q: For `CCN(CC)CC1CCCCC1=O` (stereo not shown) [CBK023965G], which viability at 28.5 h, 10 µM is on record?
A: 93.9%

Q: With `NCCNCCNCCN` [CBK023985C] as the compound, how does the viability at 28.5 h, 10 µM read?
A: 93.2%

Q: For `Cc1cc(C(=O)NCCc2ccc(S(=O)(=O)NC(=O)NC3CCCCC3)cc2)n[nH]1` [CBK023997], which viability at 28.5 h, 10 µM is on record?
A: 99.1%

Q: For `Nc1ccc2cc3ccc(N)cc3nc2c1` [CBK024003G], which viability at 28.5 h, 10 µM is on record?
A: 71%

Q: With `COc1ccc2c3c1CCC(C)(C)C3COC2CCN1CCN(c2ccc(F)cc2)CC1` (stereo not shown) [CBK024047C] as the compound, how does the viability at 28.5 h, 10 µM read?
A: 86.7%

Q: For `N=C(N)NCCc1ccc(Cl)cc1` [CBK024074G], which viability at 28.5 h, 10 µM is on record?
A: 105%

Q: With `CC1(C)COC(CCN2CCN(c3ccc(F)cc3)CC2)c2ccccc21` (stereo not shown) [CBK024080C] as the compound, how does the viability at 28.5 h, 10 µM read?
A: 105%

Q: With `COc1ccccc1CN(C)C(C)=O` [CBK024120] as the compound, how does the viability at 28.5 h, 10 µM read?
A: 118%

Q: With `CCC(=O)N[C@H]1CC[C@@]2(Cc3ccc(OC)cc3)CCN(C)[C@H]2C1` [CBK024126] as the compound, how does the viability at 28.5 h, 10 µM read?
A: 98.9%

Q: For `COc1ccc(C[C@@]23CC[C@H](NC(=O)NCCc4ccccc4)C[C@@H]2N(C)CC3)cc1` [CBK024127], which viability at 28.5 h, 10 µM is on record?
A: 95.2%

Q: For `Cc1cc(C(F)(F)F)nc2c(OCCOc3nccnc3N3CCNCC3)cnn12` [CBK024195C], which viability at 28.5 h, 10 µM is on record?
A: 96.1%

Q: Which viability at 28.5 h, 10 µM does the source give for `COc1ccc(N)cc1OCCn1ccnc(N2CCNCC2)c1=O` [CBK024211C] here?
A: 98.3%

Q: Which viability at 28.5 h, 10 µM does the source give for `OC(c1ccncc1)C(O)c1ccncc1` (stereo not shown) [CBK024254] here?
A: 87.1%

Q: For `COc1ccc(CCC(=O)Nc2ccccc2N2CCCNCC2)cc1` [CBK024286T], which viability at 28.5 h, 10 µM is on record?
A: 101%

Q: With `CCNc1cccnc1N1CCN(CCc2cc(C)c(O)c(C)c2)CC1` [CBK024361C] as the compound, how does the viability at 28.5 h, 10 µM read?
A: 108%

Q: For `CCCN1CCCC(c2ccccc2O)C1` (stereo not shown) [CBK024365G], which viability at 28.5 h, 10 µM is on record?
A: 95.3%

Q: For `Oc1nc(O)c2c3c(n(CCn4ccnc4)c2n1)CCCC3` [CBK024380B], which viability at 28.5 h, 10 µM is on record?
A: 109%

Q: With `CC(C)CC(C(=O)Nc1ccc(C2CCCC2)cc1)N1CCN(C)CC1` (stereo not shown) [CBK024386C] as the compound, how does the viability at 28.5 h, 10 µM read?
A: 87%

Q: For `c1ccc(CNCc2nc(-c3ccccc3)no2)cc1` [CBK024404], which viability at 28.5 h, 10 µM is on record?
A: 99.1%

Q: With `NS(=O)(=O)c1cccc(NC(=O)c2cccnc2)c1` [CBK024417] as the compound, how does the viability at 28.5 h, 10 µM read?
A: 93.6%

Q: Which viability at 28.5 h, 10 µM does the source give for `NS(=O)(=O)c1cccc(NC(=O)c2cccs2)c1` [CBK024419] here?
A: 94.2%

Q: With `CC(=O)NCCN(Cc1ccc(S(=O)(=O)N2CCOC2=O)cc1)Cc1ccoc1` [CBK024460] as the compound, how does the viability at 28.5 h, 10 µM read?
A: 110%

Q: Which viability at 28.5 h, 10 µM does the source give for `COc1cccc(CC(=O)NCc2ccccc2OC2CCNC2)c1` (stereo not shown) [CBK024487T] here?
A: 88.5%

Q: Which viability at 28.5 h, 10 µM does the source give for `COCCC(=O)NCc1ccc(OC2CCNCC2)cc1` [CBK024494T] here?
A: 98.6%

Q: Which viability at 28.5 h, 10 µM does the source give for `COc1ccc(CCN(CCc2ccccc2)CC(O)COc2cccc3c2CCCC3)cc1` (stereo not shown) [CBK024506T] here?
A: 82.2%

Q: With `COc1ccc(CCN(Cc2cccnc2)CC(O)COc2cccc3c2CCCC3)cc1` (stereo not shown) [CBK024545T] as the compound, how does the viability at 28.5 h, 10 µM read?
A: 92%

Q: With `CCCC(=O)Nc1ccc(N2CCNCC2)c2ccccc12` [CBK024619T] as the compound, how does the viability at 28.5 h, 10 µM read?
A: 88.4%

Q: For `O=C1OCCN1S(=O)(=O)c1ccc(CN2CCCN(Cc3ccc(S(=O)(=O)N4CCOC4=O)cc3)CC2)cc1` [CBK024728], which viability at 28.5 h, 10 µM is on record?
A: 87.1%

Q: Which viability at 28.5 h, 10 µM does the source give for `O=C1OCCN1S(=O)(=O)c1ccc(CN2CCN(Cc3ccc(S(=O)(=O)N4CCOC4=O)cc3)CC2)cc1` [CBK024729] here?
A: 91.4%

Q: Which viability at 28.5 h, 10 µM does the source give for `O=S(=O)(c1ccccc1)N(CC(F)(F)F)c1ccc(C(O)(C(F)(F)F)C(F)(F)F)cc1` [CBK024768] here?
A: 121%

Q: With `CCCC(=O)Nc1cc(S(=O)(=O)NC)ccc1C` [CBK024770] as the compound, how does the viability at 28.5 h, 10 µM read?
A: 91.8%

Q: For `Cc1c(Cl)cccc1S(=O)(=O)Nc1nccnc1C(=O)O` [CBK024795], which viability at 28.5 h, 10 µM is on record?
A: 90.9%

Q: Which viability at 28.5 h, 10 µM does the source give for `O=C(O)c1c(NS(=O)(=O)Cc2ccccc2[N+](=O)[O-])sc2c1CCCC2` [CBK024819] here?
A: 106%

Q: With `O=c1c(N2CCNCC2)nccn1CC1COc2ccccc2O1` (stereo not shown) [CBK024845T] as the compound, how does the viability at 28.5 h, 10 µM read?
A: 87%

Q: Which viability at 28.5 h, 10 µM does the source give for `O=C1NC(N2CCCC2)=NOc2nnc(Cl)cc21` [CBK024856] here?
A: 109%

Q: Which viability at 28.5 h, 10 µM does the source give for `COc1cc(C(C)=O)ccc1OCCCN1CCC(O)(C(=O)c2cccc(C(F)(F)F)c2)CC1` [CBK024866C] here?
A: 103%

Q: For `COc1cc(C(C)=O)ccc1OCCCN1CCC(O)(C(=O)c2ccc(Cl)c(Cl)c2)CC1` [CBK024875C], which viability at 28.5 h, 10 µM is on record?
A: 97.6%

Q: For `CCCN1CCC2CN(CCCC(=O)c3ccc(F)cc3)CCN2C1=O` (stereo not shown) [CBK024882C], which viability at 28.5 h, 10 µM is on record?
A: 101%

Q: Which viability at 28.5 h, 10 µM does the source give for `CCCCCCN1CCC2CN(CCCC(=O)c3ccc(F)cc3)CCN2C1=O` (stereo not shown) [CBK024890C] here?
A: 99%

Q: Which viability at 28.5 h, 10 µM does the source give for `CC(C)CCN1CCC2CN(CCCC(c3ccc(F)cc3)c3ccc(F)cc3)CCN2C1=O` (stereo not shown) [CBK024898C] here?
A: 102%

Q: Which viability at 28.5 h, 10 µM does the source give for `CCNC(=O)N1CC(C)N(CCCC(c2ccc(F)cc2)c2ccc(F)cc2)CC1C` (stereo not shown) [CBK024912C] here?
A: 105%

Q: Which viability at 28.5 h, 10 µM does the source give for `CCCCCNC(=O)N1CCN(CCCC(c2ccc(F)cc2)c2ccc(F)cc2)CC1` [CBK024917C] here?
A: 103%

Q: With `CC1CN(C(=O)NC2CC2)C(C)CN1CCCC(c1ccc(F)cc1)c1ccc(F)cc1` (stereo not shown) [CBK024927C] as the compound, how does the viability at 28.5 h, 10 µM read?
A: 104%

Q: With `CC(=O)N1CCN(CCCC(c2ccc(F)cc2)c2ccc(F)cc2)CC1` [CBK024944C] as the compound, how does the viability at 28.5 h, 10 µM read?
A: 101%

Q: For `CNC(=O)N1CCN(CCOC(c2ccc(F)cc2)c2ccc(F)cc2)CC1` [CBK024948C], which viability at 28.5 h, 10 µM is on record?
A: 87.3%

Q: With `CC(C)C(=O)N1CC(C)N(CCCC(c2ccc(F)cc2)c2ccc(F)cc2)CC1C` (stereo not shown) [CBK024961C] as the compound, how does the viability at 28.5 h, 10 µM read?
A: 97.6%

Q: With `CCNC(=O)N1CCN(CCCCN2C(=O)CC3(CCCC3)CC2=O)CC1` [CBK024999C] as the compound, how does the viability at 28.5 h, 10 µM read?
A: 102%

Q: For `CCNC(=O)N1CCN(CCCC(O)c2ccc(F)cc2)CC1` (stereo not shown) [CBK025001C], which viability at 28.5 h, 10 µM is on record?
A: 118%

Q: With `CCNC(=O)N1CC(C)N(CCCCc2ccc(F)cc2)C(C)C1` (stereo not shown) [CBK025027C] as the compound, how does the viability at 28.5 h, 10 µM read?
A: 89.9%

Q: With `O=C(CCCN1CCN(C(=O)NC2CCC(O)CC2)CC1)c1ccc(F)cc1` (stereo not shown) [CBK025156C] as the compound, how does the viability at 28.5 h, 10 µM read?
A: 97%

Q: For `Cc1cccc(N2CCN(CCCOc3ccc(F)c(F)c3)CC2)n1` [CBK025158C], which viability at 28.5 h, 10 µM is on record?
A: 106%

Q: Which viability at 28.5 h, 10 µM does the source give for `COc1cc(C(C)=O)ccc1OCCCN1CCC(O)(C(=O)c2ccc(F)cc2)CC1` [CBK025271C] here?
A: 85.8%

Q: For `O=C(CCCN1CCN(CCCC(=O)c2ccc(F)cc2)CC1)c1ccc(F)cc1` [CBK025317C], which viability at 28.5 h, 10 µM is on record?
A: 89.1%

Q: For `CC(C)OC(=O)c1cccnc1N1CCN(CCCC(c2ccc(F)cc2)c2ccc(F)cc2)CC1` [CBK025340C], which viability at 28.5 h, 10 µM is on record?
A: 103%

Q: Which viability at 28.5 h, 10 µM does the source give for `NC(=O)c1cccnc1N1CCN(CCCN(c2ccc(F)cc2)c2ccc(F)cc2)CC1` [CBK025341C] here?
A: 110%

Q: With `CN(C)Cc1ccc(-c2cc3occ(-c4ccccc4)c3c(=O)n2C)cc1` [CBK025372] as the compound, how does the viability at 28.5 h, 10 µM read?
A: 103%

Same assay, conditions: human, hela cells, % viability, bulk resorufin, single well

Q: For `CCCN(CCc1cccnc1)C1Cc2cc(OC)c(OC)cc2C1` [CBK023935C], which viability at 28.5 h, 10 µM is on record?
A: 88.1%

— PMC12040169 (PLOS Biology, 2025)
